Our source for the TGI and GI50 values is PubChem BioAssay (NCI).

Some test systems named below: HOP-62 NSCLC; SK-MEL-5 melanoma; IGROV1 ovarian; SNB-19 CNS; UACC-257 melanoma; A549 NSCLC; KM12 colon; NCI-H522 lung; SF-268 CNS.
Common to all, as to assay: growth of human tumour cells (NCI), 48 h

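Grown in 96-well plates, cells were treated for 48 hours with each compound at five concentrations. Insufficient inhibition: endpoint recorded as highest concentration tested. GI50 marks 50% less growth. TGI denotes the concentration required for complete inhibition of growth.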

As to `NC(=O)NCc1c(C(N)=O)ncn1Cc1ccccc1`, the TGI in the assay on HOP-62 NSCLC, in the assay with SK-MEL-5 melanoma, with IGROV1 ovarian, with SNB-19 CNS, with UACC-257 melanoma and in the assay on A549 NSCLC was greater than 100 µM each time.

Consider `COc1ccc(OC)c2c(C(=O)O)c(Cc3ccccc3)ccc12`, for which the TGI in the assay on HOP-62 NSCLC, in the assay on KM12 colon, with SK-MEL-5 melanoma, in the assay on IGROV1 ovarian, in the assay with SNB-19 CNS and in the assay with NCI-H522 lung was greater than 100 µM throughout. Also, the TGI in the assay on UACC-257 melanoma, with A549 NSCLC and with SF-268 CNS was greater than 100 µM each time.

As for `Cc1ncc(CCCN(C)C)cc1Nc1ncc2c(n1)-c1ccc(C(F)(F)F)cc1NC(=S)C2`, the GI50 in the assay with HOP-62 NSCLC is less than 0.0155 µM; in the assay with KM12 colon it was less than 0.0134 µM; with SK-MEL-5 melanoma it was less than 0.0282 µM; in the assay on IGROV1 ovarian, 0.43 µM; in the assay on SNB-19 CNS, 0.0713 µM; in the assay on NCI-H522 lung, less than 0.01 µM. Besides, the GI50 in the assay with A549 NSCLC is 0.0104 µM; in the assay with SF-268 CNS, less than 0.0195 µM. For the same compound, the TGI turned out to be 1.54 µM with HOP-62 NSCLC; 10.9 µM with KM12 colon; 4.85 µM with SK-MEL-5 melanoma; 1.35 µM with IGROV1 ovarian; 68.9 µM in the assay with SNB-19 CNS; 18.1 µM in the assay on NCI-H522 lung. Besides, the TGI turned out to be 11.6 µM in the assay with A549 NSCLC and 13.8 µM in the assay on SF-268 CNS.

Regarding `CCCCCCCCCCCC(=O)OCC1OC(OC)C(NC(=O)N(CCCl)N=O)C(O)C1O` (stereo unspecified), the TGI is 42.9 µM with HOP-62 NSCLC; 37.1 µM in the assay on KM12 colon; 29.9 µM in the assay on SK-MEL-5 melanoma; greater than 100 µM in the assay on IGROV1 ovarian; greater than 100 µM with SNB-19 CNS; 24.7 µM with NCI-H522 lung. Further, the TGI with UACC-257 melanoma was found to be 27.5 µM; in the assay on A549 NSCLC it was 36.8 µM; in the assay with SF-268 CNS it was 16.4 µM.

As for `Cn1c2ccccc2c(=O)c2ccc(Cl)cc21`, the TGI in the assay on HOP-62 NSCLC was greater than 10 µM; in the assay with KM12 colon it was greater than 10 µM; in the assay with SK-MEL-5 melanoma it was greater than 10 µM; in the assay with IGROV1 ovarian it was greater than 10 µM; in the assay on SNB-19 CNS, 4 µM; in the assay with A549 NSCLC, greater than 10 µM. This compound also displayed a TGI in the assay on SF-268 CNS greater than 10 µM.

Consider `COc1cc(/C=C(\C#N)c2ccccc2)cc(OC)c1`, for which the TGI in the assay on HOP-62 NSCLC, with KM12 colon, in the assay with SK-MEL-5 melanoma, with IGROV1 ovarian, with SNB-19 CNS and in the assay on NCI-H522 lung was greater than 100 µM throughout. Besides, the TGI with UACC-257 melanoma is 51 µM; with A549 NSCLC it was greater than 100 µM; in the assay on SF-268 CNS, greater than 100 µM.

For `CCN(CC)c1ccc(N=Nc2ccc(-c3nc4ccc[n+](C)c4s3)cc2)cc1`, the TGI came out at 38.9 µM in the assay with HOP-62 NSCLC; 10.9 µM with KM12 colon; 33.9 µM in the assay on SK-MEL-5 melanoma; 46.2 µM with IGROV1 ovarian; 25.1 µM in the assay with SNB-19 CNS; 28.5 µM in the assay with NCI-H522 lung. For the same compound, the TGI with UACC-257 melanoma was 24.1 µM; in the assay on A549 NSCLC it was 26.3 µM; in the assay on SF-268 CNS, 48.9 µM.

Consider `COc1ccc2nc(NC(=O)C(=O)C(C#N)c3ccc([N+](=O)[O-])cc3)sc2c1` (stereo unspecified), for which the TGI with HOP-62 NSCLC, in the assay with KM12 colon, in the assay with SK-MEL-5 melanoma, in the assay on IGROV1 ovarian, with SNB-19 CNS and in the assay on NCI-H522 lung was greater than 100 µM throughout. For the same compound, the TGI in the assay with UACC-257 melanoma, in the assay with A549 NSCLC and in the assay with SF-268 CNS was greater than 100 µM each time.

`C=CCc1ccc(Oc2cc(CC=C)c3c(c2O)O[C@@H](CO)[C@H]3c2ccc(O)c(-c3cc(CC=C)ccc3O)c2)cc1`: the TGI was greater than 100 µM in the assay on HOP-62 NSCLC; greater than 100 µM in the assay on KM12 colon; greater than 100 µM in the assay with SK-MEL-5 melanoma; 72.8 µM in the assay with IGROV1 ovarian; greater than 100 µM in the assay with SNB-19 CNS; 32.6 µM in the assay on NCI-H522 lung. The TGI in the assay on UACC-257 melanoma, in the assay with A549 NSCLC and in the assay with SF-268 CNS was greater than 100 µM throughout.

For `Clc1ccc2c(c1)-c1c3c(nn1-c1ccccc1)-c1ccccc1SC3O2` (stereo unspecified), the TGI was greater than 100 µM in the assay with HOP-62 NSCLC; greater than 100 µM in the assay with KM12 colon; greater than 100 µM in the assay with SK-MEL-5 melanoma; greater than 100 µM in the assay with IGROV1 ovarian; 87.5 µM with NCI-H522 lung; greater than 100 µM with UACC-257 melanoma. In addition, the TGI in the assay on A549 NSCLC and with SF-268 CNS was greater than 100 µM throughout.

As to `O=c1c2cc(Br)cc(Br)c2nc(CCCl)n1CCO`, the TGI in the assay on HOP-62 NSCLC, with KM12 colon, with SK-MEL-5 melanoma, in the assay on IGROV1 ovarian, in the assay on NCI-H522 lung and with UACC-257 melanoma was greater than 100 µM in each case. Besides, the TGI in the assay with A549 NSCLC and in the assay with SF-268 CNS was greater than 100 µM in each case.

As for `CN(C)c1cc[c]([Sn]([c]2ccc(N(C)C)cc2)([c]2ccc(N(C)C)cc2)[c]2ccc(N(C)C)cc2)cc1`, the GI50 in the assay on KM12 colon is 5.88 µM; in the assay with SK-MEL-5 melanoma, 2.85 µM; in the assay on IGROV1 ovarian it was 5.25 µM; in the assay on SNB-19 CNS, 10.7 µM; in the assay on A549 NSCLC it was 13.8 µM; with SF-268 CNS, 3.67 µM. The TGI in the assay with KM12 colon is 22.7 µM; with SK-MEL-5 melanoma, 14.2 µM; in the assay with IGROV1 ovarian, 19.6 µM; in the assay on SNB-19 CNS, 23 µM; in the assay with A549 NSCLC it was 37.5 µM; with SF-268 CNS, 25.4 µM.

Regarding `O=C1[C@@H]2C(c3ccccc3F)=NO[C@@H]2C(=O)N1c1ccc(Cc2ccc(N3C(=O)[C@H]4C(c5ccccc5F)=NO[C@H]4C3=O)cc2)cc1`, the TGI in the assay with HOP-62 NSCLC, in the assay on KM12 colon, in the assay on SK-MEL-5 melanoma, in the assay with IGROV1 ovarian, in the assay on SNB-19 CNS and in the assay on NCI-H522 lung was greater than 100 µM each time. The TGI in the assay on UACC-257 melanoma, in the assay with A549 NSCLC and with SF-268 CNS was greater than 100 µM in each case.

For `COc1ccc(CCN2COc3c([C@@H](C)CCC=C(C)C)ccc(C)c3C2)cc1OC`, the GI50 in the assay with HOP-62 NSCLC was 1.86 µM; in the assay with KM12 colon, 2.86 µM; in the assay with SK-MEL-5 melanoma, 1.64 µM; with IGROV1 ovarian, 1.08 µM; with SNB-19 CNS, 12.1 µM; with UACC-257 melanoma, 2.93 µM. Moreover, the results for the GI50 with A549 NSCLC and with SF-268 CNS were 10.3 µM and 1.45 µM, respectively. Besides, the TGI with HOP-62 NSCLC came out at 3.62 µM; in the assay on KM12 colon it was 9.64 µM; in the assay with SK-MEL-5 melanoma, 3.04 µM; with IGROV1 ovarian, 3.52 µM; in the assay on SNB-19 CNS, 42.8 µM; in the assay with UACC-257 melanoma, 10.9 µM. Besides, the values for the TGI in the assay with A549 NSCLC and in the assay with SF-268 CNS were 31.5 µM and 4.34 µM, respectively.
